Read-outs that look alike come from different tables or passages of the source.
Columns and labels:
β2-adrenoceptors = target: T1, β2-adrenoceptors (Rattus norvegicus, UniProt P10608); assay: 50% reduction in isoprenaline-induced depressor responses (β2-blocking activity) in rats, i.v.; format: in vivo; conditions: iv, dosage for 50% reduction in isoprenaline-induced depressor responses
T1 construct: this activity is measured in rats by determining the dosage; from tissue; host or cells: living rat, i.v. dosing; read-out blood pressure (isoprenaline-induced depressor response)

β1-adrenoceptors = target: T2, β1-adrenoceptors (Rattus norvegicus, UniProt P18090); assay: 50% reduction in isoprenaline-induced tachycardia (β1-blocking activity) in rats, i.v.; format: in vivo; conditions: iv, read-out: ED50 (HR)
T2 construct: this activity is measured in rats by determining the dosage; from tissue; host or cells: living rat, i.v. dosing; read-out heart rate (isoprenaline-induced tachycardia)

[1] = rats, i.v., dosage for 50% reduction in isoprenaline-induced tachycardia

T1 sequence (P10608 whole entry): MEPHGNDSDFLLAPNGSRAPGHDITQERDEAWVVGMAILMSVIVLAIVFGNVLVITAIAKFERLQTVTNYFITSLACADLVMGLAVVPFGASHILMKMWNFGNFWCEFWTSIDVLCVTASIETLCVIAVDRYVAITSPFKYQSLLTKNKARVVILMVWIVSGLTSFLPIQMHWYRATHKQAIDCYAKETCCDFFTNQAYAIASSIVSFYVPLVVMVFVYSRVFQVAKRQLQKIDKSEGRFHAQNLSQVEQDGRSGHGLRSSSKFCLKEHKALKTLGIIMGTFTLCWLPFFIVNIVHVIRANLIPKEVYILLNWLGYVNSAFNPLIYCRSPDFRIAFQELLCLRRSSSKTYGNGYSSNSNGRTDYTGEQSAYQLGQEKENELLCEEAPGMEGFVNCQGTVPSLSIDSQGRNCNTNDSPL
T2 sequence (P18090 whole entry): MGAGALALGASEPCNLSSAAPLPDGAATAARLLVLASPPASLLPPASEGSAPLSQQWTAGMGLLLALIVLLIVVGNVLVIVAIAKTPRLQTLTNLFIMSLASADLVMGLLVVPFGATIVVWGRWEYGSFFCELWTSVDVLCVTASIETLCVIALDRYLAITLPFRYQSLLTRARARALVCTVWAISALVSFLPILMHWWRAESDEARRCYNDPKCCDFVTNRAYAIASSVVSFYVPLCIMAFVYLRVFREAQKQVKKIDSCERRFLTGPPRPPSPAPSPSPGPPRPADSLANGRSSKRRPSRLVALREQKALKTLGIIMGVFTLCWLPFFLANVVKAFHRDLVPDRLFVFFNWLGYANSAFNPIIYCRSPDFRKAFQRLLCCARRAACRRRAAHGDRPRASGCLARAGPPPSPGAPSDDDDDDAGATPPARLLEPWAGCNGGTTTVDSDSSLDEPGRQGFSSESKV

Row | ED50 (β2-adrenoceptors) [mg/kg] | ED50 (β1-adrenoceptors; [1]) [mg/kg] | SMILES | ED50 (β1-adrenoceptors) [mg/kg]
1 | 2.43 | 0.004 | CC(C)NCC(O)COc1ccc(OCn2cc(Cl)cn2)cc1 (stereo not drawn) [B] | 
2 | > 2 | 0.014 | CC(C)NCC(O)COc1ccc(OCCn2nccn2)cc1 (stereo not drawn) [D] | 
3 | > 2 | 0.011 | CC(C)NCC(O)COc1ccc(OCn2nccn2)cc1 (stereo not drawn) [C] | 

Continued, compound first:

Row | SMILES | ED50 (β2-adrenoceptors) [mg/kg] | ED50 (β1-adrenoceptors; [1]) [mg/kg] | ED50 (β1-adrenoceptors) [mg/kg]
4 | CC(C)NCC(O)COc1ccc(CC(N)=O)cc1 (stereo not drawn) [Atenolol, atenolol, reference compound] |  |  | 0.091
5 | CC(C)NCC(O)COc1ccc(OCCn2cccn2)cc1 (stereo not drawn) [A] | 6.5 | 0.05 | 

— US4387100A, “Substituted phenoxy-aminopropanol derivatives” (Hoffmann-La Roche Inc., priority 1980, dated 1983)
